From publication PMC5696560 (Bioorganic & Medicinal Chemistry Letters, 2017) come the findings set out here.

In brackets after ≈: the same amount, converted by molar mass.

One may read the IC50 as the concentration at which inhibition is half-maximal. Broadly, the MIC90 is the lowest concentration that inhibits either 90% of growth or 90% of the strains tested, depending on the study. As a reminder, the MIC is the lowest concentration found to suppress growth. One may read the half-life as how long it takes for the measured level to halve. A higher half-life goes with slow decline.

Tested on in one data set: not given
Experiment: not given
Particulars: human, microsomes.
As to `COc1nc2ccc(Br)cc2cc1[C@@H](c1ccc(N(C)C)nc1)[C@@](O)(CCN(C)C)c1cccc(F)c1` [Compound 36], the Clint amounted to 38 µL/min/mg/protein.
Still for that read-out and setting: the result for `COc1nc2ccc(Br)cc2cc1[C@@H](c1cncc(C)c1)[C@@](O)(CCN(C)C)c1cccc(F)c1` [Compound 42] reads 56 µL/min/mg/protein; that for `COc1nc2ccc(Br)cc2cc1[C@@H](c1ccnc(OC)c1OC)[C@@](O)(CCN(C)C)c1cccc(C#N)c1` [Compound 49], 19 µL/min/mg/protein.
Same read-out and setting: then `CCSc1ccc([C@H](c2cc3cc(Br)ccc3nc2OC)[C@@](O)(CCN(C)C)c2cccc(F)c2)cn1` [Compound 39], with 11 µL/min/mg/protein.

The next data set deals with CYP 3A4 (Homo sapiens, UniProt P08684). Nature of the data set: Inhibition of CYP 3A4. The settings on record: 20 min exposure. The data set is classed as in vitro ADME.
Chain of CYP 3A4 (P08684 whole entry, species assumed): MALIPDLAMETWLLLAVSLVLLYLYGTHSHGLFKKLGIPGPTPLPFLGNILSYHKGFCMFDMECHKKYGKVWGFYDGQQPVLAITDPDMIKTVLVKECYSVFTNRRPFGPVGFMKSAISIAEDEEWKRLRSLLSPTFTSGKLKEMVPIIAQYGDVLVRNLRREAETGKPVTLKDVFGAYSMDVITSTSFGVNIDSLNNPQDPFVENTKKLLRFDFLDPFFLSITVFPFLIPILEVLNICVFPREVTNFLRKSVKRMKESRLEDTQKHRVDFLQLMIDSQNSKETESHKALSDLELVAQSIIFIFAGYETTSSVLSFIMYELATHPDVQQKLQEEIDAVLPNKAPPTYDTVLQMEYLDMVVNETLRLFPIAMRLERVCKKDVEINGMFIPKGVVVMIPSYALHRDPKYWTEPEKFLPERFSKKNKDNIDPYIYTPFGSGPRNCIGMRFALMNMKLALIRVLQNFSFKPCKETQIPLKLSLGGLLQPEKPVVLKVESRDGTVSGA
`COc1nc2ccc(Br)cc2cc1[C@@H](c1ccc(N(C)C)nc1)[C@@](O)(CCN(C)C)c1cccc(F)c1` [Compound 36] had a half-inhibitory concentration (IC50) of over 10 µM.
Take `COc1nc2ccc(Br)cc2cc1[C@@H](c1cncc(C)c1)[C@@](O)(CCN(C)C)c1cccc(F)c1` [Compound 42]: inhibition was half-maximal at 4.6 µM (IC50).
Still for that read-out and setting: then `COc1nc2ccc(Br)cc2cc1[C@@H](c1ccnc(OC)c1OC)[C@@](O)(CCN(C)C)c1cccc(C#N)c1` [Compound 49], with over 10 µM; and `CCSc1ccc([C@H](c2cc3cc(Br)ccc3nc2OC)[C@@](O)(CCN(C)C)c2cccc(F)c2)cn1` [Compound 39], with 10 µM.

The next data set relates to M.tb strain H37Rv. The experiment in a line: MABA: inhibition of growth of M.tb H37Rv under aerobic (replicating) conditions. In kind it is cell-based. Particulars: Mycobacterium tuberculosis, H37RV.
For the compound `COc1nc2ccc(Br)cc2cc1[C@@H](c1ccccc1)[C@@](O)(CCN(C)C)c1cccc2ccccc12` [Compound 1, bedaquiline, reference compound], the MIC90 came to 0.05 µg/mL (≈ 0.09 µM).
Still for that read-out and setting: then `COc1nc2ccc(Br)cc2cc1[C@@H](c1ccc(N(C)C)nc1)[C@@](O)(CCN(C)C)c1cccc(F)c1` [Compound 36], with 0.08 µg/mL (≈ 0.141 µM).
The compound `COc1nc2ccc(Br)cc2cc1[C@@H](c1cncc(C)c1)[C@@](O)(CCN(C)C)c1cccc(F)c1` [Compound 42] had an MIC90 of 0.53 µg/mL (≈ 0.984 µM). This MIC90 is about 6.6-fold higher than that of the compound before.
The compound `COc1nc2ccc(Br)cc2cc1[C@@H](c1ccnc(OC)c1OC)[C@@](O)(CCN(C)C)c1cccc(C#N)c1` [Compound 49] came in with an MIC90 of 0.13 µg/mL (≈ 0.22 µM). Against the preceding compound, the MIC90 is about 4.1-fold lower.
The same measure, in the same setting: the result for `CCSc1ccc([C@H](c2cc3cc(Br)ccc3nc2OC)[C@@](O)(CCN(C)C)c2cccc(F)c2)cn1` [Compound 39] reads 0.14 µg/mL (≈ 0.239 µM).

Staying with this data set, now noted: Mycobacterium tuberculosis; M.tb H37Rv, replicating; read-out: MIC (MABA).
On to `COc1nc2ccc(Br)cc2cc1[C@@H](c1ccccc1)[C@@](O)(CCN(C)C)c1cccc2ccccc12` [Compound 1, bedaquiline, reference compound], for which the MIC stood at 0.05 µM (≈ 0.0278 µg/mL).

Tested on in the next data set: not given
Experiment: not given
Particulars: rat, in vivo.
For `COc1nc2ccc(Br)cc2cc1[C@@H](c1ccc(N(C)C)nc1)[C@@](O)(CCN(C)C)c1cccc(F)c1` [Compound 36], the “F(%) oral bioavailability” value came to 45%.
Consider `COc1nc2ccc(Br)cc2cc1[C@@H](c1cncc(C)c1)[C@@](O)(CCN(C)C)c1cccc(F)c1` [Compound 42], for which the “F(%) oral bioavailability” value turned out to be 24%.
For `COc1nc2ccc(Br)cc2cc1[C@@H](c1ccnc(OC)c1OC)[C@@](O)(CCN(C)C)c1cccc(C#N)c1` [Compound 49], the “F(%) oral bioavailability” value stood at 68% and the “oral bioavailability (in words)” value is recorded as “comparable to that of 1”.
With `CCSc1ccc([C@H](c2cc3cc(Br)ccc3nc2OC)[C@@](O)(CCN(C)C)c2cccc(F)c2)cn1` [Compound 39], the “F(%) oral bioavailability” value was 30%.

Tested on in a further data set: not listed separately
The experiment in a line: in vitro. Particulars: human, human liver microsomes. A general note: Microsomes from liver hold many membrane-bound enzymes, among them those of drug oxidation.
`COc1nc2ccc(Br)cc2cc1[C@@H](c1ccc(N(C)C)nc1)[C@@](O)(CCN(C)C)c1cccc(F)c1` [Compound 36] returned a half-life of 18 min.
On the same count and under the same terms, then `COc1nc2ccc(Br)cc2cc1[C@@H](c1cncc(C)c1)[C@@](O)(CCN(C)C)c1cccc(F)c1` [Compound 42], with 12 min.
`COc1nc2ccc(Br)cc2cc1[C@@H](c1ccnc(OC)c1OC)[C@@](O)(CCN(C)C)c1cccc(C#N)c1` [Compound 49]: the half-life was determined as 37 min.
Take `CCSc1ccc([C@H](c2cc3cc(Br)ccc3nc2OC)[C@@](O)(CCN(C)C)c2cccc(F)c2)cn1` [Compound 39]: the half-life was determined as 64 min. This half-life is about 1.7-fold higher than that of the compound before.

Another data set deals with M.tb strain H37Rv. The experiment in a line: LORA: inhibition of growth of M.tb H37Rv under non-replicating conditions. In kind it is cell-based. Particulars: Mycobacterium tuberculosis. The method, then: The compounds were evaluated for their inhibition of growth (measured as MIC90 values in µg/mL) against M.tb (strain H37Rv) under both replicating (MABA)[16] or non-replicating (LORA)[17] conditions. […] In a search for less lipophilic analogues, we prepared and evaluated compounds where this phenyl B-ring unit was replaced with different heterocycles of varying lipophilicity (Table 1).
As for `COc1nc2ccc(Br)cc2cc1[C@@H](c1ccccc1)[C@@](O)(CCN(C)C)c1cccc2ccccc12` [Compound 1, bedaquiline, reference compound], the MIC90 is 0.08 µg/mL (≈ 0.144 µM).
On the same count and under the same terms, the result for `COc1nc2ccc(Br)cc2cc1[C@@H](c1ccc(N(C)C)nc1)[C@@](O)(CCN(C)C)c1cccc(F)c1` [Compound 36] reads 0.15 µg/mL (≈ 0.264 µM); that for `COc1nc2ccc(Br)cc2cc1[C@@H](c1cncc(C)c1)[C@@](O)(CCN(C)C)c1cccc(F)c1` [Compound 42], 0.97 µg/mL (≈ 1.8 µM).
`COc1nc2ccc(Br)cc2cc1[C@@H](c1ccnc(OC)c1OC)[C@@](O)(CCN(C)C)c1cccc(C#N)c1` [Compound 49] came in with an MIC90 of 0.21 µg/mL (≈ 0.355 µM). Against the preceding compound, the MIC90 is about 4.6-fold lower.
In the case of `CCSc1ccc([C@H](c2cc3cc(Br)ccc3nc2OC)[C@@](O)(CCN(C)C)c2cccc(F)c2)cn1` [Compound 39], the MIC90 turned out to be 0.15 µg/mL (≈ 0.257 µM).

The data set is the same for the next values; noted with them: Mycobacterium tuberculosis, read-out: MIC (LORA).
`COc1nc2ccc(Br)cc2cc1[C@@H](c1ccccc1)[C@@](O)(CCN(C)C)c1cccc2ccccc12` [Compound 1, bedaquiline, reference compound]: the MIC worked out at 0.08 µM (≈ 0.0444 µg/mL).

Tested on in another data set: not listed separately
Nature of the data set: Oral bioavailability in rats. Particulars: BioDuro LLC.
`COc1nc2ccc(Br)cc2cc1[C@@H](c1ccccc1)[C@@](O)(CCN(C)C)c1cccc2ccccc12` [Compound 1, bedaquiline, reference compound]: the “F(%) oral bioavailability” value was found to be 70%.
